Consider 39 compounds from US12006330B2, “Substituted macrocyclic compounds and related methods of treatment” (Alkermes, Inc., priority 2020, dated 2024).

The structures appear in SMILES notation. Bounds are passed on as bounds.

One may read the EC50 as the concentration needed to bring the measured effect to its halfway point.

The test deals with T1, human orexin-2 receptor (OX2R) (Homo sapiens, UniProt O43614).
T1 construct: expressed in transfected cells
T1 sequence (O43614 1-444): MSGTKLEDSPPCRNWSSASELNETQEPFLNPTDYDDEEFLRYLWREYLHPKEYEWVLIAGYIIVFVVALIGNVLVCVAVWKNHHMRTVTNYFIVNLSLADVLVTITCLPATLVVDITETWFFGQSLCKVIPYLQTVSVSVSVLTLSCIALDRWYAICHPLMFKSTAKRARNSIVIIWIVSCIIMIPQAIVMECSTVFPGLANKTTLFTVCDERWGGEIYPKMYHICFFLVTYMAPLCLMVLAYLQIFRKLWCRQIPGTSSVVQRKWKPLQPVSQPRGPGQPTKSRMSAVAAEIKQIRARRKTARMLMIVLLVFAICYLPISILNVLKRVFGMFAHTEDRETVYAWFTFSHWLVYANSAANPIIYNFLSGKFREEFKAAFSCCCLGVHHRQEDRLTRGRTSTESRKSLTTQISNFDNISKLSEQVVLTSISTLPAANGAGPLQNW
Put plainly: Human OX2R IP1 assay. It is filed as cell-based. The note with it: T-Rex CHO cells stably overexpressing human OX2R; IP1 accumulation; 1 hr at 37 degrees C; mean EC50. The procedure:
T-Rex CHO cells stably overexpressing the human orexin-2 receptor (OX2R) were induced overnight with 1 μg/mL of doxycycline in a T225 flask. 24 hours post induction, cells were lifted with accutase and plated into a 384-well proxy plate at 30,000 cells/well. Cells were then treated with different test compounds in 1× stimulation buffer containing 10 mM Hepes, 1 mM CaCl2), 0.5 mM MgCl2, 4.2 mM KCl, 146 mM NaCl, 5.5 mM glucose, and 50 mM LiCl, pH 7.4, for 1 hr at 37 degrees C. Following incubation, the reaction was terminated by the addition of detection mix, which is composed of IP1-d2 and anti-IP1-cryptate diluted in lysis buffer as well as 1× stimulation buffer. The plates were allowed to incubate for 1 hour at room temperature and were then read in the EnVision® multimode plate reader, measuring inositol phosphate levels.
Cisbio IP1 is a cell-based functional assay quantifying the accumulation of inositol monophosphate (IP), a metabolite released as a result of orexin 2 receptor activation through the phospholipase C-Gq signaling pathway. This is a competitive immunoassay in which the IP1 produced by the cells upon receptor activation competes with the IP1 analog coupled to the d2 fluorophore (acceptor) for binding to an anti-IP1 monoclonal antibody labeled with Eu cryptate (donor). The measured HTRF-FRET based signal is inversely proportional to the IP1 concentration produced.
The EC50 values reported in Table 2 were obtained according to the human OX2R IP1 assay described above. Data are the mean EC50 values S.E.M. Reference Compound A is methyl (2R,3S)-3-((methylsulfonyl)amino)-2-(((cis-4-phenylcyclohexyl)oxy)methyl)-piperidine-1-carboxylate (Example 5 of PCT publication No. WO2017/135306). Reference Compound B is N-((2S,3S)-1-(2-hydroxy-2-methylpropanoyl)-2-((2,3′,5′-trifluorobiphenyl-3-yl)methyl)pyrrolidin-3-yl)methanesulfonamide (Example 483 of PCT publication No. WO2019/027058).
Turning to `O=C1COc2ccccc2[C@H]2CC[C@H](CC2)OC[C@H]2[C@@H](NS(=O)(=O)C3CC3)CCN12` (stereo in doubt) [Compound 105], the EC50 is less than 10 nM. To `O=C1COc2ccccc2[C@H]2CC[C@H](CC2)OC[C@H]2[C@@H](NS(=O)(=O)C3COC3)CCN12` (stereo in doubt) [Compound 110] belongs less than 10 nM; to `O=S(=O)(N[C@H]1CCCN2CCOc3ccccc3[C@H]3CC[C@H](CC3)OC[C@@H]12)C1CC1` (stereo in doubt) [Compound 51], 10 to 1000 nM. `CC(C)S(=O)(=O)N[C@H]1CCN2C(=O)COc3ccccc3[C@H]3CC[C@H](CC3)OC[C@@H]12` (stereo in doubt) [Compound 106]: the EC50 was less than 10 nM. The compound `O=C1COc2ncccc2[C@H]2CC[C@H](CC2)OC[C@H]2[C@@H](NS(=O)(=O)C3CC3)CCCN12` (stereo in doubt) [Compound 14] registered an EC50 of less than 10 nM. To `O=C1COc2cccc(F)c2[C@H]2CC[C@H](CC2)OC[C@H]2[C@@H](NS(=O)(=O)C3CC3)CCCN12` (stereo in doubt) [Compound 74] belongs less than 10 nM; to `CC1(S(=O)(=O)N[C@H]2CCCN3C(=O)COc4ccccc4[C@H]4CC[C@H](CC4)OC[C@@H]23)CC1` (stereo in doubt) [Compound 8], less than 10 nM; to `Cc1ncnc2c1[C@H]1CC[C@H](CC1)OC[C@H]1[C@@H](NS(C)(=O)=O)CCN1C(=O)CO2` (stereo in doubt) [Compound 82], 10 to 1000 nM. Turning to `O=S(=O)(CC1CCC1)N[C@H]1CCCN2CCOc3ccccc3[C@H]3CC[C@H](CC3)OC[C@@H]12` (stereo in doubt) [Compound 55], the EC50 was more than 1000 nM. `C=CS(=O)(=O)N[C@H]1CCCN2C(=O)COc3ccccc3[C@H]3CC[C@H](CC3)OC[C@@H]12` (stereo in doubt) [Compound 5] came in with an EC50 of less than 10 nM.

Regarding `Cc1ccnc2c1[C@H]1CC[C@H](CC1)OC[C@H]1[C@@H](NS(C)(=O)=O)CCCN1C(=O)CO2` (stereo in doubt) [Compound 12], the EC50 was less than 10 nM.

Consider `Cc1ncnc2c1[C@H]1CC[C@H](CC1)OC[C@H]1[C@@H](NS(=O)(=O)C(C)C)CCN1C(=O)CO2` (stereo in doubt) [Compound 86], for which the EC50 was 10 to 1000 nM. In turn, `O=C1COc2ccccc2[C@H]2CC[C@H](CC2)OC[C@H]2[C@@H](NS(=O)(=O)C3CC3)CCCN12` (stereo in doubt) [Compound 1] gave an EC50 of less than 10 nM. To `CC(C)S(=O)(=O)N[C@H]1CCCN2CCOc3ccccc3[C@H]3CC[C@H](CC3)OC[C@@H]12` (stereo in doubt) [Compound 52] belongs more than 1000 nM. As for `O=C1COc2ccccc2[C@H]2CC[C@H](CC2)OC[C@H]2[C@@H](NS(=O)(=O)CF)CCCN12` (stereo in doubt) [Compound 6], the EC50 was less than 10 nM. Consider `Cc1ccc2c(c1)[C@H]1CC[C@H](CC1)OC[C@H]1[C@@H](NS(C)(=O)=O)CCCN1C(=O)CO2` (stereo in doubt) [Compound 17], for which the 50% effective concentration (EC50) was less than 10 nM.

`CC(C)S(=O)(=O)N[C@H]1CCCN2C(=O)COc3nccnc3[C@H]3CC[C@H](CC3)OC[C@@H]12` (stereo in doubt) [Compound 66] registered an EC50 of less than 10 nM.

`O=C1COc2ncccc2[C@H]2CC[C@H](CC2)OCC2[C@@H](NS(=O)(=O)C(F)(F)F)CCN12` (stereo in doubt) [Compound 108]: the EC50 was less than 10 nM. The compound `CS(=O)(=O)N[C@H]1CCCN2C(=O)COc3ccc(O)cc3[C@H]3CC[C@H](CC3)OC[C@@H]12` (stereo in doubt) [Compound 96] showed an EC50 of less than 10 nM.

For `O=C1COc2ncncc2[C@H]2CC[C@H](CC2)OC[C@H]2[C@@H](NS(=O)(=O)C3CC3)CCCN12` (stereo in doubt) [Compound 97], the EC50 fell in the range of 10 to 1000 nM. For the compound `O=S(=O)(N[C@H]1CCCN2CCOc3ccccc3[C@H]3CC[C@H](CC3)OC[C@@H]12)C1CCC1` (stereo in doubt) [Compound 57], the EC50 lay in the range of 10 to 1000 nM. As to `CS(=O)(=O)N[C@H]1CCCN2C(=O)COc3cc(C#N)ccc3[C@H]3CC[C@H](CC3)OC[C@@H]12` (stereo in doubt) [Compound 47], the EC50 lay within 10 to 1000 nM.

Take `O=C1COc2nccnc2[C@H]2CC[C@H](CC2)OC[C@H]2[C@@H](NS(=O)(=O)C3CC3)CCCN12` (stereo in doubt) [Compound 65]: the EC50 was less than 10 nM.

Compound `Cc1cnc2c(c1)[C@H]1CC[C@H](CC1)OC[C@H]1[C@@H](NS(=O)(=O)C(C)C)CCCN1C(=O)CO2` (stereo in doubt) [Compound 34] had an EC50 of less than 10 nM. In turn, `Cc1c(Cl)ccc2c1[C@H]1CC[C@H](CC1)OC[C@H]1[C@@H](NS(=O)(=O)C3CC3)CCCN1C(=O)CO2` (stereo in doubt) [Compound 75] gave an EC50 of less than 10 nM. Compound `Cc1ccnc2c1[C@H]1CC[C@H](CC1)OC[C@H]1[C@@H](NS(=O)(=O)C(C)C)CCCN1C(=O)CO2` (stereo in doubt) [Compound 10] yielded an EC50 of less than 10 nM. As to `O=C1COc2ccccc2[C@H]2CC[C@H](CC2)OC[C@H]2[C@@H](NS(=O)(=O)C3CCC3)CCCN12` (stereo in doubt) [Compound 42], the EC50 was less than 10 nM. Regarding `C[C@H]1C[C@H](NS(C)(=O)=O)C2CO[C@H]3CC[C@H](CC3)c3ccccc3OCC(=O)N21` (stereo in doubt) [Compound 111], the EC50 lay within 10 to 1000 nM.

For `CN(C)CCS(=O)(=O)N[C@H]1CCCN2C(=O)COc3ccccc3[C@H]3CC[C@H](CC3)OC[C@@H]12` (stereo in doubt) [Compound 39], the concentration for a half-maximal effect (EC50) was less than 10 nM. Regarding `O=C1COc2ccccc2[C@H]2CC[C@H](CC2)OC[C@H]2[C@@H](NS(=O)(=O)C3COC3)CCCN12` (stereo in doubt) [Compound 80], the half-maximal effective concentration (EC50) is less than 10 nM. `O=C1COc2ccc(Cl)cc2[C@H]2CC[C@H](CC2)OC[C@H]2[C@@H](NS(=O)(=O)C3CC3)CCCN12` (stereo in doubt) [Compound 16] returned an EC50 of less than 10 nM.

`CC(C)S(=O)(=O)N[C@H]1CCCN2C(=O)COc3ccccc3[C@H]3CC[C@H](CC3)OC[C@@H]12` (stereo in doubt) [Compound 3]: the EC50 was less than 10 nM. In turn, `Cc1cccc2c1[C@H]1CC[C@H](CC1)OC[C@H]1[C@@H](NS(=O)(=O)C3CC3)CCN1C(=O)CO2` (stereo in doubt) [Compound 70] registered an EC50 of less than 10 nM. `Cc1cccc2c1[C@H]1CC[C@H](CC1)OC[C@H]1[C@@H](NS(=O)(=O)C(C)C)CCCN1C(=O)CO2` (stereo in doubt) [Compound 9] gave an EC50 of less than 10 nM. On to `CC(C)(C)S(=O)(=O)N[C@H]1CCCN2CCOc3ccccc3[C@H]3CC[C@H](CC3)OC[C@@H]12` (stereo in doubt) [Compound 56], for which the EC50 was more than 1000 nM. On to `CC(C)(C)S(=O)(=O)N[C@H]1CCCN2C(=O)COc3ccccc3[C@H]3CC[C@H](CC3)OC[C@@H]12` (stereo in doubt) [Compound 44], for which the EC50 lay in the range of 10 to 1000 nM. `CC1(S(=O)(=O)N[C@H]2CCCN3CCOc4ccccc4[C@H]4CC[C@H](CC4)OC[C@@H]23)CC1` (stereo in doubt) [Compound 58]: the EC50 lay in the range of 10 to 1000 nM. `Cc1ccnc2c1[C@H]1CC[C@H](CC1)OC[C@H]1[C@@H](NS(=O)(=O)C3COC3)CCCN1C(=O)CO2` (stereo in doubt) [Compound 88]: the EC50 was less than 10 nM. `Cc1ccc2c(c1C)[C@H]1CC[C@H](CC1)OC[C@H]1[C@@H](NS(=O)(=O)C3CC3)CCCN1C(=O)CO2` (stereo in doubt) [Compound 77] showed an EC50 of less than 10 nM.
